# Test results as given in PubChem BioAssay AID248 (DTP/NCI, 2004).
# Where “and” joins values, the source holds several entries; their conditions need not be identical. Equal entries are not always repeated. Inconclusive results and toxic doses are left out.
# System: L1210 leukemia ip in BDF1 mice, survival T/C
# Experiment: NCI In Vivo Anticancer Drug Screen. Data for tumor model L1210 Leukemia (intraperitoneal) in B6D2F1 (BDF1) mice
# Conditions: endpoint: mean survival time, higher = longer survival
# Procedure, shortened: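 Transplantable tumor model; survival measured in treated vs vehicle control mice. Value = treated/control.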
# [1] = dose: 100.0 mg/kg/injection, schedule: Q01DX001 (ip), vehicle: saline
# [2] = dose: 200.0 mg/kg/injection, schedule: Q01DX001 (ip), vehicle: saline
# [3] = dose: 400.0 mg/kg/injection, schedule: Q01DX001 (ip), vehicle: saline
# [4] = dose: 100.0 mg/kg/injection, schedule: Q04DX003 (ip), vehicle: saline
# [5] = dose: 200.0 mg/kg/injection, schedule: Q04DX003 (ip), vehicle: saline
# [6] = dose: 400.0 mg/kg/injection, schedule: Q04DX003 (ip), vehicle: saline
# [7] = dose: 50.0 mg/kg/injection, schedule: Q01DX009 (ip), vehicle: Klucel (hydroxypropylcellulose) (HPC)
# [8] = dose: 100.0 mg/kg/injection, schedule: Q01DX009 (ip), vehicle: Klucel (hydroxypropylcellulose) (HPC)
# [9] = dose: 100.0 mg/kg/injection, schedule: Q04DX003 (ip), vehicle: Klucel (hydroxypropylcellulose) (HPC)
# [10] = dose: 200.0 mg/kg/injection, schedule: Q04DX003 (ip), vehicle: Klucel (hydroxypropylcellulose) (HPC)
# [11] = dose: 6.25 mg/kg/injection, schedule: Q01DX009 (ip), vehicle: Klucel (hydroxypropylcellulose) (HPC)
# [12] = dose: 12.5 mg/kg/injection, schedule: Q01DX009 (ip), vehicle: Klucel (hydroxypropylcellulose) (HPC)
# [13] = dose: 25.0 mg/kg/injection, schedule: Q01DX009 (ip), vehicle: Klucel (hydroxypropylcellulose) (HPC)
# [14] = dose: 400.0 mg/kg/injection, schedule: Q04DX003 (ip), vehicle: Klucel (hydroxypropylcellulose) (HPC)
smiles,measurement,setting,value
O[C@H](CN1CC1)[C@@H](O)CN1CC1,T/C,"dose: 0.05 mg/kg/injection, schedule: Q01DX010 (oral), vehicle: other",114 % of control
same,T/C,"dose: 0.05 mg/kg/injection, schedule: Q01DX010 (oral), vehicle: saline",111 % of control
same,T/C,"dose: 0.05 mg/kg/injection, schedule: Q01DX Z (ip), vehicle: methylcellulose (MC)",154 % of control
same,T/C,"dose: 0.1 mg/kg/injection, schedule: Q01DX010 (oral), vehicle: saline",118 % of control
same,T/C,"dose: 0.1 mg/kg/injection, schedule: Q01DX Z (ip), vehicle: methylcellulose (MC)",87 % of control
same,T/C,"dose: 0.1 mg/kg/injection, schedule: Q01DX Z (oral), vehicle: saline",101 % of control
same,T/C,"dose: 0.13 mg/kg/injection, schedule: Q01DX009 (ip), vehicle: saline",187 % of control and 192 % of control
same,T/C,"dose: 0.2 mg/kg/injection, schedule: Q01DX010 (oral), vehicle: other",157 % of control
same,T/C,"dose: 0.25 mg/kg/injection, schedule: Q01DX009 (ip), vehicle: saline",204 % of control and 206 % of control
same,T/C,"dose: 0.3 mg/kg/injection, schedule: Q01DX Z (oral), vehicle: saline",111 % of control
same,T/C,"dose: 0.4 mg/kg/injection, schedule: Q01DX010 (oral), vehicle: saline",164 % of control
same,T/C,"dose: 0.44 mg/kg/injection, schedule: Q01DX Z (oral), vehicle: saline",172 % of control
same,T/C,"dose: 0.5 mg/kg/injection, schedule: Q01DX009 (ip), vehicle: saline",221 % of control and 257 % of control
same,T/C,"dose: 0.66 mg/kg/injection, schedule: Q01DX Z (oral), vehicle: saline",182 % of control
same,T/C,"dose: 0.8 mg/kg/injection, schedule: Q01DX010 (oral), vehicle: other",88 % of control
same,T/C,"dose: 0.8 mg/kg/injection, schedule: Q01DX010 (oral), vehicle: saline",108 % of control
same,T/C,"dose: 1.0 mg/kg/injection, schedule: Q01DX009 (ip), vehicle: saline",104 % of control and 88 % of control
same,T/C,"dose: 1.0 mg/kg/injection, schedule: Q01DX Z (ip), vehicle: methylcellulose (MC)",121 % of control
same,T/C,"dose: 1.0 mg/kg/injection, schedule: Q01DX Z (oral), vehicle: saline",122 % of control
same,T/C,"dose: 1.5 mg/kg/injection, schedule: Q01DX Z (oral), vehicle: saline",97 % of control
c1ccc(-c2ccc(-c3cnc(-c4ccccc4)[nH]3)cc2)cc1,T/C,"dose: 100.0 mg/kg/injection, schedule: Q01DX001 (ip), vehicle: saline with Tween-80",95 % of control
same,T/C,"dose: 200.0 mg/kg/injection, schedule: Q01DX001 (ip), vehicle: saline with Tween-80",92 % of control
same,T/C,"dose: 400.0 mg/kg/injection, schedule: Q01DX001 (ip), vehicle: saline with Tween-80",92 % of control
CC[CH2][Sn]([CH2]CC)([CH2]CC)[CH2]CC,T/C,"dose: 50.0 mg/kg/injection, schedule: Q01DX001 (ip), vehicle: carboxymethylcellulose (CMC)",95 % of control
same,T/C,"dose: 100.0 mg/kg/injection, schedule: Q01DX001 (ip), vehicle: carboxymethylcellulose (CMC)",86 % of control
CC1C=CC(C(N)C(=O)O)O1 (configuration not stated),T/C,[1],103 % of control
same,T/C,[2],95 % of control
same,T/C,[3],101 % of control
OC(CC(O)(C(F)(F)Cl)C(F)(F)Cl)c1cccs1 (configuration not stated),T/C,[4],93 % of control
same,T/C,[5],95 % of control
same,T/C,[6],105 % of control
Cc1ccnc(NS(=O)(=O)c2ccc(N=Nc3c(N)[nH]c(=O)[nH]c3=O)cc2)n1,T/C,[1],100 % of control
same,T/C,[2],102 % of control
same,T/C,[3],105 % of control
CCCCCCCCCCCCCCC(F)C(=O)O (configuration not stated),T/C,[7],96 % of control
same,T/C,[8],101 % of control
same,T/C,[9],92 % of control
same,T/C,[10],91 % of control
CC(CCC(C)OS(C)(=O)=O)OS(C)(=O)=O (configuration not stated),T/C,"dose: 2.0 mg/kg/injection, schedule: Q01DX010 (ip), vehicle: saline",86 % of control and 87 % of control
same,T/C,"dose: 3.1 mg/kg/injection, schedule: Q01DX009 (ip), vehicle: Klucel (hydroxypropylcellulose) (HPC)",96 % of control
same,T/C,"dose: 4.0 mg/kg/injection, schedule: Q01DX009 (ip), vehicle: saline",97 % of control
same,T/C,"dose: 4.0 mg/kg/injection, schedule: Q01DX010 (ip), vehicle: saline",100 % of control
same,T/C,[11],102 % of control and 103 % of control and 101 % of control
same,T/C,"dose: 6.25 mg/kg/injection, schedule: Q04DX002 (ip), vehicle: Klucel (hydroxypropylcellulose) (HPC)",96 % of control
same,T/C,"dose: 8.0 mg/kg/injection, schedule: Q01DX009 (ip), vehicle: saline",101 % of control
same,T/C,"dose: 8.0 mg/kg/injection, schedule: Q01DX010 (ip), vehicle: saline",89 % of control and 90 % of control
same,T/C,[12],105 % of control [middle of 4 runs]
same,T/C,"dose: 12.5 mg/kg/injection, schedule: Q04DX002 (ip), vehicle: Klucel (hydroxypropylcellulose) (HPC)",96 % of control and 100 % of control
same,T/C,"dose: 16.0 mg/kg/injection, schedule: Q01DX009 (ip), vehicle: saline",108 % of control
same,T/C,"dose: 16.0 mg/kg/injection, schedule: Q01DX010 (ip), vehicle: saline",106 % of control and 114 % of control
same,T/C,[13],102 % of control and 88 % of control and 108 % of control
same,T/C,"dose: 25.0 mg/kg/injection, schedule: Q04DX002 (ip), vehicle: Klucel (hydroxypropylcellulose) (HPC)",96 % of control and 93 % of control and 94 % of control
same,T/C,"dose: 32.0 mg/kg/injection, schedule: Q01DX009 (ip), vehicle: saline",103 % of control
same,T/C,[7],87 % of control
same,T/C,"dose: 50.0 mg/kg/injection, schedule: Q01DX009 (ip), vehicle: saline with Tween-80",91 % of control and 93 % of control
same,T/C,"dose: 50.0 mg/kg/injection, schedule: Q04DX002 (ip), vehicle: Klucel (hydroxypropylcellulose) (HPC)",107 % of control
same,T/C,"dose: 100.0 mg/kg/injection, schedule: Q01DX009 (ip), vehicle: saline with Tween-80",98 % of control and 97 % of control
same,T/C,"dose: 200.0 mg/kg/injection, schedule: Q01DX009 (ip), vehicle: saline with Tween-80",91 % of control and 87 % of control
O=C(CCCCCCC(=O)C[N+]12CCC(CC1)C(O)C2)C[N+]12CCC(CC1)C(O)C2 (configuration not stated),T/C,"dose: 0.15 mg/kg/injection, schedule: Q04DX003 (ip), vehicle: saline",102 % of control
same,T/C,"dose: 0.3 mg/kg/injection, schedule: Q04DX003 (ip), vehicle: saline",100 % of control
same,T/C,"dose: 0.6 mg/kg/injection, schedule: Q04DX003 (ip), vehicle: saline",102 % of control
CC1=Nc2ccc([N+](=O)[O-])cc2N=C(C)C1,T/C,"dose: 100.0 mg/kg/injection, schedule: Q01DX009 (ip), vehicle: saline",95 % of control
same,T/C,[4],105 % of control
same,T/C,"dose: 200.0 mg/kg/injection, schedule: Q01DX009 (ip), vehicle: saline",93 % of control
same,T/C,[5],96 % of control
same,T/C,"dose: 400.0 mg/kg/injection, schedule: Q01DX009 (ip), vehicle: saline",92 % of control
same,T/C,[6],96 % of control
FC1(F)SC2c3ccccc3CCC2C1(F)F (configuration not stated),T/C,[9],96 % of control
same,T/C,[10],95 % of control
same,T/C,[14],102 % of control
CC(C#N)C(N)=O (configuration not stated),T/C,"dose: 12.5 mg/kg/injection, schedule: Q04DX003 (ip), vehicle: saline",97 % of control
same,T/C,"dose: 25.0 mg/kg/injection, schedule: Q04DX003 (ip), vehicle: saline",94 % of control
same,T/C,"dose: 50.0 mg/kg/injection, schedule: Q04DX003 (ip), vehicle: saline",105 % of control
CC(C)(C)N1CCC1C(=O)O (configuration not stated),T/C,[1],92 % of control
same,T/C,[2],97 % of control
same,T/C,[3],97 % of control
c1ccc(N=P(c2ccccc2)(c2ccccc2)c2ccccc2)cc1,T/C,[1],94 % of control
same,T/C,[2],94 % of control
CC(=O)c1c(O)c(Br)c(C)oc1=O,T/C,[11],100 % of control
same,T/C,[12],96 % of control
same,T/C,[13],93 % of control
same,T/C,[7],89 % of control
CCOC(=O)/C(C(C)=O)=C(/O)c1ccc(OC(F)(F)C(F)Cl)cc1OC(F)(F)C(F)Cl.CCOC(=O)/C(C(C)=O)=C(/O)c1ccc(OC(F)(F)C(F)Cl)cc1OC(F)(F)C(F)Cl.[Cu] (configuration not stated),T/C,[8],88 % of control
same,T/C,[9],100 % of control
same,T/C,"dose: 200.0 mg/kg/injection, schedule: Q01DX009 (ip), vehicle: Klucel (hydroxypropylcellulose) (HPC)",94 % of control
same,T/C,[10],101 % of control
same,T/C,[14],101 % of control
CC(C)CC(NC(=O)OCc1ccccc1)C(=O)NCCCCCCNCCCCCCNC(=O)C(CC(C)C)NC(=O)OCc1ccccc1 (configuration not stated),T/C,"dose: 50.0 mg/kg/injection, schedule: Q01DX001 (ip), vehicle: saline",95 % of control
same,T/C,[2],98 % of control
CCC(C)N1C(=O)CCC1=O (configuration not stated),T/C,"dose: 150.0 mg/kg/injection, schedule: Q01DX001 (ip), vehicle: saline",101 % of control
same,T/C,"dose: 300.0 mg/kg/injection, schedule: Q01DX001 (ip), vehicle: saline",101 % of control
same,T/C,"dose: 600.0 mg/kg/injection, schedule: Q01DX001 (ip), vehicle: saline",101 % of control
